According to patent publication US7306804B2 (priority 1998, dated 2007):
Like-named read-outs stand apart in the source and are kept apart here.

Experiments:
[1] = tested on: PBMCs from control and HIV-1 infected chimpanzees; assay type: cell-based, chimpanzee
[2] = tested on: PBMCs from normal and HIV-positive individuals; assay type: cell-based, human; details: for number of HIV+ individuals with positive proliferative responses: 17 HIV+ individuals tested
[3] = tested on: anti-peptide antibodies in serum; assay type: binding, chimpanzee; design: key: +, Positive (Titer > 1:100); −, Negative (Titer < 1:100)
[4] = tested on: anti-peptide antibodies in serum; assay type: binding, human; design: key to Anti-peptide antibody response: +, Positive (titer above control); −, Negative (titer below control)

## FLGFLGAAGSTMGAASLTLTVQARQ [Peptide 121]
[1]; chimpanzee 40, control normal
  T-cell proliferative response: − (−, Negative (SI < 2.0))
[1]; chimpanzee 62, HIV-infected
  T-cell proliferative response: + (+, Positive (Stimulation Index [SI] > 2.0))
[1]; chimpanzee 69, HIV-infected
  T-cell proliferative response: + (+, Positive (Stimulation Index [SI] > 2.0))
[1]; chimpanzee 73, control normal
  T-cell proliferative response: − (−, Negative (SI < 2.0))
[1]; chimpanzee 80, HIV-infected
  T-cell proliferative response: + (+, Positive (Stimulation Index [SI] > 2.0))
[1]; chimpanzee 99, HIV-infected
  T-cell proliferative response: − (−, Negative (SI < 2.0))
[1]; chimpanzee 100, HIV-infected
  T-cell proliferative response: + (+, Positive (Stimulation Index [SI] > 2.0))
[1]; chimpanzee 139, HIV-infected
  T-cell proliferative response: − (−, Negative (SI < 2.0))
[1]; chimpanzee 175, HIV-infected
  T-cell proliferative response: + (+, Positive (Stimulation Index [SI] > 2.0))
[1]; chimpanzee 247, HIV-infected
  T-cell proliferative response: − (−, Negative (SI < 2.0))
[1]; chimpanzee 310, HIV-infected
  T-cell proliferative response: − (−, Negative (SI < 2.0))
[1]; nine HIV-infected chimpanzees tested
  number of HIV-infected chimpanzees with positive proliferative responses (SI>2.0): five
[2]
  number of HIV+ individuals with positive proliferative responses: five
[2]; HIV-positive patient MSf
  T-cell proliferative response: − (−, Negative (SI < 2.0))
[2]; HIV-positive patient MSm
  T-cell proliferative response: − (−, Negative (SI < 2.0))
[2]; HIV-positive patient eight
  T-cell proliferative response: − (−, Negative (SI < 2.0))
[2]; HIV-positive patient eleven
  T-cell proliferative response: − (−, Negative (SI < 2.0))
[2]; HIV-positive patient fifteen
  T-cell proliferative response: + (+, Positive (Stimulation Index [SI] > 2.0))
[2]; HIV-positive patient five
  T-cell proliferative response: − (−, Negative (SI < 2.0))
[2]; HIV-positive patient four
  T-cell proliferative response: − (−, Negative (SI < 2.0))
[2]; HIV-positive patient fourteen
  T-cell proliferative response: + (+, Positive (Stimulation Index [SI] > 2.0))
[2]; HIV-positive patient nine
  T-cell proliferative response: − (−, Negative (SI < 2.0))
[2]; HIV-positive patient one
  T-cell proliferative response: − (−, Negative (SI < 2.0))
[2]; HIV-positive patient seven
  T-cell proliferative response: − (−, Negative (SI < 2.0))
[2]; HIV-positive patient six
  T-cell proliferative response: + (+, Positive (Stimulation Index [SI] > 2.0))
[2]; HIV-positive patient ten
  T-cell proliferative response: + (+, Positive (Stimulation Index [SI] > 2.0))
[2]; HIV-positive patient thirteen
  T-cell proliferative response: − (−, Negative (SI < 2.0))
[2]; HIV-positive patient three
  T-cell proliferative response: + (+, Positive (Stimulation Index [SI] > 2.0))
[2]; HIV-positive patient twelve
  T-cell proliferative response: − (−, Negative (SI < 2.0))
[2]; HIV-positive patient two
  T-cell proliferative response: − (−, Negative (SI < 2.0))
[2]; Normal-1 (HIV-seronegative)
  T-cell proliferative response: − (−, Negative (SI < 2.0))
[2]; Normal-2 (HIV-seronegative)
  T-cell proliferative response: − (−, Negative (SI < 2.0))
[3]
  Anti-peptide antibody response: −
[3]; chimpanzee 40, control normal
  Anti-peptide antibody response: −
[3]; chimpanzee 73, control normal
  Anti-peptide antibody response: −
[4]
  number of HIV+ individuals with positive antibody titers (<1:1280): one
[4]; HIV-positive patient MSf
  Anti-peptide antibody response: −
[4]; HIV-positive patient MSm
  Anti-peptide antibody response: −
[4]; HIV-positive patient eight
  Anti-peptide antibody response: −
[4]; HIV-positive patient eleven
  Anti-peptide antibody response: −
[4]; HIV-positive patient fifteen
  Anti-peptide antibody response: −
[4]; HIV-positive patient five
  Anti-peptide antibody response: −
[4]; HIV-positive patient four
  Anti-peptide antibody response: −
[4]; HIV-positive patient fourteen
  Anti-peptide antibody response: −
[4]; HIV-positive patient nine
  Anti-peptide antibody response: +
[4]; HIV-positive patient one
  Anti-peptide antibody response: −
[4]; HIV-positive patient seven
  Anti-peptide antibody response: −
[4]; HIV-positive patient six
  Anti-peptide antibody response: −
[4]; HIV-positive patient ten
  Anti-peptide antibody response: −
[4]; HIV-positive patient thirteen
  Anti-peptide antibody response: −
[4]; HIV-positive patient three
  Anti-peptide antibody response: −
[4]; HIV-positive patient twelve
  Anti-peptide antibody response: −
[4]; HIV-positive patient two
  Anti-peptide antibody response: −
[4]; Normal-1 (HIV-seronegative)
  Anti-peptide antibody response: −
[4]; Normal-2 (HIV-seronegative)
  Anti-peptide antibody response: −

## STRTPEDSNSLGT [c-mos peptide, reference compound]
[1]; chimpanzee 40, control normal
  T-cell proliferative response: − (−, Negative (SI < 2.0))
[1]; chimpanzee 62, HIV-infected
  T-cell proliferative response: − (−, Negative (SI < 2.0))
[1]; chimpanzee 69, HIV-infected
  T-cell proliferative response: − (−, Negative (SI < 2.0))
[1]; chimpanzee 73, control normal
  T-cell proliferative response: − (−, Negative (SI < 2.0))
[1]; chimpanzee 80, HIV-infected
  T-cell proliferative response: − (−, Negative (SI < 2.0))
[1]; chimpanzee 99, HIV-infected
  T-cell proliferative response: − (−, Negative (SI < 2.0))
[1]; chimpanzee 100, HIV-infected
  T-cell proliferative response: − (−, Negative (SI < 2.0))
[1]; chimpanzee 139, HIV-infected
  T-cell proliferative response: − (−, Negative (SI < 2.0))
[1]; chimpanzee 175
  SI, background level of proliferation: 2.7
[1]; chimpanzee 175, HIV-infected
  T-cell proliferative response: + (+, Positive (Stimulation Index [SI] > 2.0))
[1]; chimpanzee 247, HIV-infected
  T-cell proliferative response: − (−, Negative (SI < 2.0))
[1]; chimpanzee 310, HIV-infected
  T-cell proliferative response: − (−, Negative (SI < 2.0))
[2]
  number of HIV+ individuals with positive proliferative responses: None
[2]; listed as control peptide
  number of HIV+ individuals with positive proliferative responses: none
[2]; HIV-positive patient MSf
  T-cell proliferative response: − (−, Negative (SI < 2.0))
[2]; HIV-positive patient MSm
  T-cell proliferative response: − (−, Negative (SI < 2.0))
[2]; HIV-positive patient eight
  T-cell proliferative response: − (−, Negative (SI < 2.0))
[2]; HIV-positive patient eleven
  T-cell proliferative response: − (−, Negative (SI < 2.0))
[2]; HIV-positive patient fifteen
  T-cell proliferative response: − (−, Negative (SI < 2.0))
[2]; HIV-positive patient five
  T-cell proliferative response: − (−, Negative (SI < 2.0))
[2]; HIV-positive patient four
  T-cell proliferative response: − (−, Negative (SI < 2.0))
[2]; HIV-positive patient fourteen
  T-cell proliferative response: − (−, Negative (SI < 2.0))
[2]; HIV-positive patient nine
  T-cell proliferative response: − (−, Negative (SI < 2.0))
[2]; HIV-positive patient one
  T-cell proliferative response: − (−, Negative (SI < 2.0))
[2]; HIV-positive patient seven
  T-cell proliferative response: − (−, Negative (SI < 2.0))
[2]; HIV-positive patient six
  T-cell proliferative response: − (−, Negative (SI < 2.0))
[2]; HIV-positive patient ten
  T-cell proliferative response: − (−, Negative (SI < 2.0))
[2]; HIV-positive patient thirteen
  T-cell proliferative response: − (−, Negative (SI < 2.0))
[2]; HIV-positive patient three
  T-cell proliferative response: − (−, Negative (SI < 2.0))
[2]; HIV-positive patient twelve
  T-cell proliferative response: − (−, Negative (SI < 2.0))
[2]; HIV-positive patient two
  T-cell proliferative response: − (−, Negative (SI < 2.0))
[2]; Normal-1 (HIV-seronegative)
  T-cell proliferative response: − (−, Negative (SI < 2.0))
[2]; Normal-2 (HIV-seronegative)
  T-cell proliferative response: − (−, Negative (SI < 2.0))
[3]
  Anti-peptide antibody response: −
[3]; chimpanzee 40, control normal
  Anti-peptide antibody response: −
[3]; chimpanzee 73, control normal
  Anti-peptide antibody response: −
[4]; HIV-positive patient MSf
  Anti-peptide antibody response: −
[4]; HIV-positive patient MSm
  Anti-peptide antibody response: −
[4]; HIV-positive patient eight
  Anti-peptide antibody response: −
[4]; HIV-positive patient eleven
  Anti-peptide antibody response: −
[4]; HIV-positive patient fifteen
  Anti-peptide antibody response: −
[4]; HIV-positive patient five
  Anti-peptide antibody response: −
[4]; HIV-positive patient four
  Anti-peptide antibody response: −
[4]; HIV-positive patient fourteen
  Anti-peptide antibody response: −
[4]; HIV-positive patient nine
  Anti-peptide antibody response: −
[4]; HIV-positive patient one
  Anti-peptide antibody response: −
[4]; HIV-positive patient seven
  Anti-peptide antibody response: −
[4]; HIV-positive patient six
  Anti-peptide antibody response: −
[4]; HIV-positive patient ten
  Anti-peptide antibody response: −
[4]; HIV-positive patient thirteen
  Anti-peptide antibody response: −
[4]; HIV-positive patient three
  Anti-peptide antibody response: −
[4]; HIV-positive patient twelve
  Anti-peptide antibody response: −
[4]; HIV-positive patient two
  Anti-peptide antibody response: −
[4]; Normal-1 (HIV-seronegative)
  Anti-peptide antibody response: −
[4]; Normal-2 (HIV-seronegative)
  Anti-peptide antibody response: −
